In US12128035B2, “Activating pyruvate kinase R” (Novo Nordisk Health Care AG, priority 2021, dated 2024):

Experiments:
[1] = Phase 1 SAD/MAD: plasma pharmacokinetics in healthy volunteers; assay type: in vivo, human; conditions: 14 days of dosing in healthy subjects
Description: This is a first-in-human (FIH), Phase 1 study of Compound 1 that will characterize the safety, PK, and PD of Compound 1 after a single dose and after repeated dosing first in healthy adult volunteers and then in adolescents or adults with sickle cell disease. Initially, a dose range of Compound 1 in single ascending dose (SAD) escalation cohorts will be explored in healthy subjects. Enrollment of healthy subjects into 2-week multiple ascending dose (MAD) escalation cohorts will be initiated once the safety and PK from at least two SAD cohorts is available to inform the doses for the 2-week MAD portion of the study. The MAD cohorts will then run in parallel to the single dose cohorts. A single dose cohort is planned to understand food effects (FE) on the PK of Compound 1. […]
In this study, SAD/MAD cohorts are randomized (3 to 1) to receive Compound 1 or placebo (P). Compound 1 was evaluated first in 4 healthy SAD cohorts and 4 healthy MAD (14-day dosing period) cohorts. Based on the safety, and PK/PD profile from HS, Compound 1 is then evaluated in 1 SCD SAD cohort and 2 SCD MAD cohorts. Specifically, based on the safety and pharmacokinetic/pharmacodynamics (PK/PD) profile in healthy volunteer studies, Compound 1 is evaluated in patients (pts) with SCD, first in a single dose (SD or SAD) cohort and then in multiple-dose (MD or MAD) cohorts (14-day and 12-week). […]

[2] = system: H295R adreno-cortical carcinoma cell line; assay: Steroid modulation screen in vitro; assay type: cell-based; conditions: tested at 200 to 0.0002 μM; only at top concentration
Experimental: To assess potential effects on steroidogenesis, Compound 1 was screened for steroid modulation in vitro using the H295R adreno-cortical carcinoma cell line (at 200 to 0.0002 μM) and in an assay to monitor cell viability (MTT Kit). Compound 1 indicated steroid modulation potential (% over vehicle) only at 200 μM, the top concentration tested, with 100% cellular viability at concentrations ≤20 μM (90% viability at 200 μM).

O=C([C@H](CO)c1ccccc1)N1CC2=C(C1)CN(S(=O)(=O)c1cnc3c(c1)OCCO3)C2 (single isomer, unassigned) [Compound 1]
clearance on day 1 and day 14 [1]: unchanged | concentration indicating steroid modulation potential (% over vehicle) [2]: 200 µM
